# According to PMC8347481, “Germacranolides from Carpesium divaricatum: Some New Data on Cytotoxic and Anti-Inflammatory Activity” (Molecules, 2021):
# Where two headings read alike, the source gives them in different places.
# Columns and labels:
# cancer cells = system: cancer cells; set-up: method as in PMID 30127485, PMID 22908556; conditions: cancer cells in vitro; cited from earlier work
# NF-κB = conditions: cited from earlier work
# PC3 cells = system: PC3 cells; set-up: method as in PMID 33968193; conditions: cited from earlier work
# [1] = system: IL-8 secretion by LPS-stimulated human neutrophils; assay: IL-8 release, ELISA; format: cell-based; conditions: 0.5, 1.0 and 2.5 µM, 24 h after LPS stimulation
# Method: (§1) In response to stimulation with proinflammatory agents, e.g., LPS or f-MLP, human neutrophils excrete an array of cytokines and chemokines, including TNF-α, IL-1β, IL-8 and CCL2 [29, 30]. In the present study, neutrophils were pretreated with the examined compounds (1 or 2) before their priming with LPS. Levels of IL-1β, IL-8, TNF-α and CCL2 were determined in the culture medium, using ELISA, 24 h after LPS stimulation.
# (§2) Neutrophils (2 × 10^6) were cultured in 24-well plates in RPMI 1640 medium with 10% FBS, 10 mM HEPES and 2 mM L-glutamine, in the presence or absence of LPS (100 ng/mL) and in the absence or presence of 1 or 2 (final concentrations of the examined germacranolide in a range of 0.5–2.5 μM), at 37 °C with 5% CO2. The neutrophils were harvested after 24 h and centrifuged (2000 r.p.m., 10 min, 4 °C). The amount of released cytokines was measured by enzyme-linked immunosorbent assay (ELISA) following the manufacturer’s instructions (BD Biosciences, USA). The effects on IL-8, IL-1β, CCL2 and TNF-α production by the neutrophils were calculated by comparing the percentages of the released agents to the stimulated control without the tested compound.
# [2] = system: ROS release from f-MLP-stimulated human neutrophils; assay: ROS production, luminol-dependent chemiluminescence; format: cell-based; conditions: f-MLP stimulation, concentration range 1–2.5 μM
# Method: Activation of PMNs, either at a site of inflammation or induced in vitro by proinflammatory agents, results in an oxidative burst in these cells. The phenomenon is characterized by intense ROS generation and liberation of proteolytic enzymes from azurophilic granules. An effect of the sesquiterpene lactones 1 and 2 on ROS production in PMNs was assessed in response to N-formyl-Met-Leu-Phe (f-MLP) stimulation.
# ROS production was measured using luminol-dependent chemiluminescence test. A 70 μL aliquot of neutrophil suspension (3.5 × 10^5) in (Ca^2+)-free HBSS buffer, 50 μL of the tested compound solution and 50 μL of luminol (100 μM) were added to a well in a 96-well plate. ROS production was initiated by the addition of f-MLP (30 μL of 0.1 μg/mL solution) to obtain a total volume of 200 μL per well. Chemiluminescence changes were measured for 40 min, at 2 min intervals, in a microplate reader (37 °C). The background chemiluminescence produced by nonstimulated cells was also determined. The percentage of inhibition was calculated by comparison to the stimulated control without the tested compound, at the maximum luminescence.
# [3] = system: human polymorphonuclear leukocytes (PMNs); assay: Cytotoxicity to neutrophils, propidium iodide staining and flow cytometry; format: cell-based; conditions: at 2.5 µM or lower concentrations, 24 h incubation
# Method: Cytotoxicity of 1 and 2 to human polymorphonuclear leukocytes (PMNs) was evaluated using propidium iodide (PI) staining and flow cytometry (FACS) analysis. The compounds were nontoxic in PMNs at 2.5 µM or lower concentrations (Figure 4).
# Cytotoxicity was assessed by a standard flow cytometric probe using propidium iodide (PI) staining. After 24 h of incubation in the absence or presence of the tested germacranolide (at concentrations of 0.5, 1.0, 2.5 and 5.0 μM), the neutrophils (3.5 × 10^5) were harvested and centrifuged (1500 r.p.m., 10 min, 4 °C), washed once with cold PBS and resuspended in 400 μL of PBS. A 5 μL aliquot of PI solution (50 μg/mL) was added to the cell suspension. After 15 min of incubation with PI at room temperature, cells were analyzed by BD FACSCalibur flow cytometer (BD Biosciences, San Jose, CA, USA), and 10,000 events were recorded per sample.
# SAOS-2 = assay: MTT viability test, osteosarcoma cells with p53 deletion; conditions: Homo sapiens
# Method: (§6) Two osteosarcoma cell lines: U-2 OS (with wild-type p53 status) and SAOS-2 (p53 null cell line) were used to evaluate cytotoxic activity of 1 and 2. Doxorubicin was employed as a reference drug. Viability of the cells treated by 1 or 2 (concentration range 0.014–50.0 µM) for 24 and 48 h was assessed by thiazolyl blue tetrazolium bromide (MTT) test.
# (§7) Human osteosarcoma cell lines U-2 OS (ATCC HTB-96; wild-type p53 status) and SAOS-2 (ATCC HTB-85; p53 deletion) were cultured in McCoy’s 5A medium containing L-glutamine and supplemented with 10% FBS at 37 °C and in a humidified atmosphere with 5% CO2. […] After that, working solutions were diluted with culture media to the final 1× concentrations (0.014–50 μM).
# (§8) For the MTT assay, the osteosarcoma cells suspended in the nutrient medium were seeded into 96-well microtiter plates (density 1.0 × 10^4 per well) and preincubated for 24 h (37 °C, 5% CO2). Subsequently, the cells were treated with 1 or 2 at different concentrations (0.014–50 μM) and further cultivated for another 24 or 48 h. After that, MTT was added for 1 h at the final concentration of 500 ng/mL. The culture medium was removed and the formazan crystals were dissolved in isopropanol containing 40 mM HCl. Absorbance was measured using Tecan microplate reader at 570 nm with the reference wavelength of 650 nm. […] Data were analyzed using Origin software.
# [4] = system: IL-1β secretion by LPS-stimulated human neutrophils; assay: IL-1β release, ELISA; format: cell-based; conditions: 0.5, 1.0 and 2.5 µM, 24 h after LPS stimulation
# Method: as §1, §2
# U-2 OS = assay: MTT viability test, osteosarcoma cells with wild-type p53 status; conditions: Homo sapiens, U2OS
# Method: as §6, §7, §8
# [5] = system: CCL2 secretion by LPS-stimulated human neutrophils; assay: CCL2 release, ELISA; format: cell-based; conditions: 0.5, 1.0 and 2.5 µM, 24 h after LPS stimulation
# Method: as §1, §2
# [6] = system: TNF-α secretion by LPS-stimulated human neutrophils; assay: TNF-α release, ELISA; format: cell-based
# Method: as §1, §2
# MCF-7 cell line = system: MCF-7 cell line; set-up: method as in PMID 30127485; conditions: cited from earlier work
# HepG2 cells = system: HepG2 cells; set-up: method as in PMID 35520265; conditions: cited from earlier work
# PC3 = assay: LDH cell viability assay, prostate cancer cells; format: cell-based; conditions: Homo sapiens, PC-3; PC3, 24 h, LDH assay; read-out: IC50
# Method: (§3) Normal prostate epithelial cells (PNT2), two prostate cancer cell lines (Du145 and PC3), human keratinocytes (HaCaT), two melanoma cell lines (A375 and HTB140) and two colon cancer cell lines (HT29 and Caco-2) were treated with 3 at a concentration range 1.0–50.0 µg/mL. Viability of the cells was estimated using lactate dehydrogenase (LDH) assay.
# (§4) Cytotoxic activity of 3 was tested on human cancer and normal cells, grouped in three panels: prostate, skin and gastrointestinal. The prostate panel comprised prostate cancer cell lines DU145 (ATCC HTB-81) and PC3 (ATCC CRL-1435) and prostate normal epithelial cells PNT2 (ECACC 95012613). Melanoma cell lines A375 (ATCC CRL-1619) and HTB140 (ATCC Hs 294T) together with human keratinocytes HaCaT (obtained as a kind gift of Prof. Marta Michalik, Department of Cell Biology, Jagiellonian University) were included in the skin panel. Two colon cancer cell lines, namely Caco-2 (ATCC HTB-37) and HT29 (ATCC HTB-38), constituted the gastrointestinal panel. Du145 cells were grown in a modified Eagle’s medium with low (1.0 g/L) glucose concentration; HT29, PC3 and PNT-2 cells were grown in Dulbecco’s modified Eagle’s medium (DMEM) and F12 HAM Nutrient Mixture; Caco-2 cells were grown in modified Eagle’s medium with nonessential amino acids (NEAA); and melanoma cells and keratinocytes were maintained in modified Eagle’s medium with high (4.5 g/L) glucose concentration. The culture media contained antibiotics and 10% fetal bovine serum (FBS). All cultures were maintained at 37 °C in a humidified, 5% CO2-containing atmosphere.
# (§5) The examined compound (3) was diluted in the culture media from freshly made stock solution in MeOH (10 mg/mL) to the working concentrations (from 0 to 50 μg/mL). Cell viability was determined as described previously. […] Then, the culture medium was replaced with the medium containing different concentrations of the assessed compound (1–50 μg/mL). After 24 h of incubation, the viability of the cells was determined using colorimetric lactate dehydrogenase (LDH) assay in comparison to the controls to which corresponding aliquots of MeOH diluted with culture media were added. Cells grown in the medium without the tested compound were used as control I (negative), and the positive control (control II) was obtained by incubation of the cells in the medium containing 1% Triton X-100. LDH released from the damaged cells into the cell culture medium was quantified by measuring the absorbance at 490 nm using a Synergy II Biotek microplate reader. Cytotoxicities of the examined compounds were calculated as follows: ((absorbance of the tested sample−absorbance of control I)/(absorbance of control II−absorbance of control I)) × 100. Results were means of three independent measurements (± SD). Doxorubicin (Ebewe Pharma G.m.b.H., Unterach, Austria) was used as a reference cytostatic drug.
# [7] = system: normal and cancer cell lines (prostate, skin, gastrointestinal panels); assay: LDH cytotoxicity, whole panel of normal and cancer cell lines; format: cell-based; conditions: Homo sapiens; 24 h treatment, cell density 1.5 × 10^4; doxorubicin: except PC3 cells; read-out: IC50 range over the cell lines
# Method: Cytotoxic activity of 3 was tested on human cancer and normal cells, grouped in three panels: prostate, skin and gastrointestinal. The prostate panel comprised prostate cancer cell lines DU145 (ATCC HTB-81) and PC3 (ATCC CRL-1435) and prostate normal epithelial cells PNT2 (ECACC 95012613). Melanoma cell lines A375 (ATCC CRL-1619) and HTB140 (ATCC Hs 294T) together with human keratinocytes HaCaT (obtained as a kind gift of Prof. Marta Michalik, Department of Cell Biology, Jagiellonian University) were included in the skin panel. Two colon cancer cell lines, namely Caco-2 (ATCC HTB-37) and HT29 (ATCC HTB-38), constituted the gastrointestinal panel. […]
# The examined compound (3) was diluted in the culture media from freshly made stock solution in MeOH (10 mg/mL) to the working concentrations (from 0 to 50 μg/mL). Cell viability was determined as described previously. […] Then, the culture medium was replaced with the medium containing different concentrations of the assessed compound (1–50 μg/mL). After 24 h of incubation, the viability of the cells was determined using colorimetric lactate dehydrogenase (LDH) assay in comparison to the controls to which corresponding aliquots of MeOH diluted with culture media were added. […] LDH released from the damaged cells into the cell culture medium was quantified by measuring the absorbance at 490 nm using a Synergy II Biotek microplate reader. […]
# A375 = assay: LDH cell viability assay, melanoma cells; format: cell-based; conditions: Homo sapiens, A-375; A375, 24 h, LDH assay; read-out: IC50
# Method: as §3, §4, §5
# HTB140 = assay: LDH cell viability assay, melanoma cells; format: cell-based; conditions: Homo sapiens; HTB140, 24 h, LDH assay; read-out: IC50
# Method: as §3, §4, §5
# HaCaT = assay: LDH cell viability assay, keratinocytes; format: cell-based, human; conditions: Homo sapiens, 24 h, LDH assay, read-out: IC50
# Method: as §3, §4, §5
compound,measurement,setting,value
"2α,5-epoxy-5,10-dihydroxy- 6α-angeloyloxy-9β-(3-methylbutyryloxy)-germacran-8α,12-olide",IC50,cancer cells,> 7.6 µM
same,NF-κB inhibitory effect,NF-κB; concentration range 1–10 μM,NF-κB inhibitory effect was shown
"C=C1C(=O)O[C@H]2[C@H]1[C@@H](OC(=O)C(C)C)C(=O)[C@H](C)CCC[C@](C)(O)[C@@H]2OC(=O)C(C)C [incaspitolide A, Incaspitolide A]",Apoptosis induction,PC3 cells,appeared to induce apoptosis
"2β,5-epoxy-5,10-dihydroxy-6α-angeloyloxy-9β-isobutyryloxy-germacran-8α,12-olide",IC50,cancer cells,> 7.9 µM
same,NF-κB inhibitory effect,NF-κB; concentration of 10 μM,NF-κB inhibitory effect was shown
"C=C1C(=O)O[C@H]2[C@H]1[C@@H](O)[C@H](OC(=O)CC(C)C)[C@H](C)CCC(=O)[C@](C)(O)[C@@H]2OC(=O)/C(C)=C\C [Compound 2, 4β,8α-dihydroxy-5β-angeloyloxy-9β-(3-methylbutyryloxy)-3-oxo-germacran-6α,12-olide]",IL-8 production upon LPS stimulation,[1],significant and dose-dependent inhibition
same,ROS generation,[2],significantly and dose-dependently reduced ROS generation
same,Cytotoxicity to PMNs (propidium iodide staining),[3],nontoxic
same,IC50,"SAOS-2; SAOS-2, 24 h",5.21 µM
same,IC50,"SAOS-2; SAOS-2, 48 h",3.57 µM
same,IL-1β production upon LPS stimulation,[4],significant and dose-dependent inhibition
same,IC50,U-2 OS; 24 h,3.18 µM
same,IC50,U-2 OS; 48 h,2.52 µM
same,CCL2 production upon LPS stimulation,[5],significant and dose-dependent inhibition
"C=C1C(=O)O[C@H]2[C@H]1[C@@H](O)[C@H](OC(=O)C(C)CC)[C@H](C)CCC(=O)[C@](C)(O)[C@@H]2OC(=O)/C(C)=C\C (stereo partly drawn) [Compound 1, 4β,8α-dihydroxy-5β-angeloyloxy-9β-(2-methylbutyryloxy)-3-oxo-germacran-6α,12-olide]",IL-8 production upon LPS stimulation,[1],significant and dose-dependent inhibition
same,TNF-α secretion,[6]; lowest concentration (0.5 μM),could not be achieved
same,TNF-α release,"[6]; only in the two higher concentrations (1.0 and 2.5 μM), 24 h after LPS stimulation",statistically significant reduction
same,ROS generation,[2],significantly and dose-dependently reduced ROS generation
same,Cytotoxicity to PMNs (propidium iodide staining),[3],nontoxic
same,Cytotoxicity,MCF-7 cell line,resistant
same,IC50,"SAOS-2; SAOS-2, 24 h",9.11 µM
same,IC50,"SAOS-2; SAOS-2, 48 h",6.76 µM
same,IL-1β production upon LPS stimulation,[4],significant and dose-dependent inhibition
same,IC50,U-2 OS; 24 h,7.77 µM
same,IC50,U-2 OS; 48 h,5.1 µM
same,CCL2 production upon LPS stimulation,[5],significant and dose-dependent inhibition
Cardivarolide H,Apoptosis induction,HepG2 cells,appeared to induce apoptosis
"COc1cccc2c1C(=O)c1c(O)c3c(c(O)c1C2=O)C[C@@](O)(C(=O)CO)C[C@@H]3O[C@H]1C[C@H](N)[C@H](O)[C@H](C)O1 [Doxorubicin, reference compound]",IC50,PC3,> 50 mg/L
same,IC50,[7],1.1 to 10.5 µM
same,IC50,A375,0.59 ± 0.04 mg/L
same,IC50,HTB140,> 5.71 mg/L
same,IC50,"SAOS-2; SAOS-2, 24 h",4.36 µM
same,IC50,"SAOS-2; SAOS-2, 48 h",0.08 µM
same,IC50,U-2 OS; 24 h,1.87 µM
same,IC50,U-2 OS; 48 h,0.17 µM
same,IC50,HaCaT,> 4.68 mg/L
